Measurements taken from publication PMC5400620, “Preclinical therapeutic efficacy of a novel blood-brain barrier-penetrant dual PI3K/mTOR inhibitor with preferential response in PI3K/PTEN mutant glioma” (Oncotarget, 2017).
Where two headings read alike, the source gives them in different places.

Tests used:
[1] = tested on: PI3K/mTOR signaling (pAkt, pS6); experiment: pAkt and pS6 in U87 tumors or brain after a single PO dose; assay type: in vivo, mice; conditions: single PO dose 6 mg/kg, compared with untreated animals
Experimental: Figure 1 A. and B. Plasma and brain concentration-time profile of DS7423 following a single PO administration (6 mg/kg) to nude mice. C. Western blot of mouse brains probed with antibodies against pAkt (Ser473) and pS6 (Ser235/236) in a time profile similar to that shown in A and B. Results are presented as the mean ± SE of six animals in each group.
To correlate DS brain concentration with the modulation of PI3K/mTOR signaling in U87 tumors, we used immunohistochemical analysis to study the signaling alterations in tumor sections derived from mice at similar time points following a single PO dose of DS (6 mg/kg). Tissue sections were probed with antibodies against pAkt and pS6. […] DS plasma and brain concentrations decreased after 24 hours, which correlated with an increase in pAkt and pS6.

LN229 = LN229 intracranial model efficacy; assay type: in vivo; conditions: LN229 tumor-bearing mice, PTEN wild type
Experimental: We studied the efficacy of DS in 2 intracranial tumor models; the U87 glioma cell line and the GSC11 glioma initiating cell line are both PTEN mutant and GSC-11 is PIK3CA mutant cells. The median survival time of the U87 tumor-bearing control mice (i.e., those injected with methylcellulose only) was 30 days, whereas the median survival time of the U87 tumor-bearing mice orally treated with 6 mg/kg of DS was 46 days (Figure 4A; P=0.025). The median survival of the GSC11 tumor-bearing mice orally treated with 6 mg/kg of DS was 61 days (Figure 4B; P=0.014) compared with 47 days for the control-treated mice. The in vivo therapeutic efficacy of DS was assessed by plotting the Kaplan-Meier survival curves of the animals, and group data were compared using the log-rank test (Figure 4A and 4B). […] We also studied LN229 a PTEN wild type cell line to study the efficacy of DS in intracranial model.

panel of 227 kinases = experiment: representative panel of 227 kinases in biochemical assays; conditions: greater than 50% inhibition only against 2 other kinases
Experimental: DS7423 inhibits PI3K/mTOR activity likely binding to the ATP binding cleft of these enzymes and was tested against class I PI3K and other kinases using an HTRF assay format and direct measurement of substrate phosphorylation, respectively.

[2] = tested on: glioma cell lines and GICs; experiment: CellTiter-Blue cell viability assay, 72 hours; assay type: cell-based; conditions: Homo sapiens
Experimental: To determine the cytotoxicity of DS in GBM cells and GICs in vitro, we used a colorimetric […] assay. […] To investigate the role of PI3K/PTEN, we expressed PTEN in PTEN-mutant U87 glioma cells.
A panel of GIC lines was treated with various concentrations of DS. Cells were treated with increasing concentrations of DS in triplicate wells for 72 hours, and cell viability was assessed by a CellTiter-Blue assay. The results shown are from a single experiment with three independent replicates. The graph depicts cell viability at 72 hours. Cell viability in the vehicle control was considered to be 100%.
Nine well characterized GBM cell lines and 22 patient-derived GIC lines (provided by Drs. Frederick. F. Lang and Erik. P. Sulman, Brain Tumor center, M. D. Anderson Cancer Center) with various P53, PIK3CA, and PTEN statuses were used for this study. GBM cells were maintained as monolayer cultures and GICs were cultured as GBM neurospheres in DMEM/F12 medium containing B27 supplement (Invitrogen, Grand Island, NY) and basic fibroblast growth factor, and epidermal growth factor (20 ng/ml each).
The antiproliferative effect of DS on cells growing in culture was determined using the CellTiter-Blue (Promega, Madison, WI) viability assay. […]

U87 glioma cells = experiment: U87 orthotopic intracranial xenograft efficacy; assay type: in vivo
Excerpt: Figure 4 DS7423 suppressed tumor growth and prolonged survival in an orthotopic mouse xenograft model U87 glioma cells U87 and GSC11 GICs were used to generate orthotopic xenografts in mouse brains. Tumor-bearing mice received either vehicle or DS7423 at the indicated dose/schedules. Two mice were killed at the indicated time points (2 weeks and 4 weeks) after DS treatment. A. and B. Kaplan–Meier survival plots of tumor-bearing mice in vehicle or DS7423 treatment groups (n = 10). The log-rank method was used to test for a difference between groups. […] Bar, 100 μm.
6 to 8-week-old male nude mice were obtained from the MD Anderson breeding facility and used in accordance with the Animal Care and Use Guidelines of MD Anderson Cancer Center. In this study, 5 × 10^5 U87 (PTEN mutant) cells in DMEM/F12 serum-free media (5 μL) and GSC11 (PIK3CA mutant and PTEN mutant) were implanted intracranially into each mouse using a guide-screw system, as described previously. Four days after injection of the tumor cells, mice were randomized into 2 groups (10 animals per group). Mice in-group 1 was given 6 mg/kg DS7423 via oral gavage, and mice in-group 2 were given the vehicle (0.5% methyl cellulose) used for administration of DS (control). […] Mice were monitored daily and euthanized when they became moribund. […]

U87 GFP-LC3 cells = experiment: GFP-LC3 puncta detection (autophagy); assay type: cell-based, human; conditions: TMZ 125 μM, DS 100 nM, control 2%
Excerpt: To investigate the effects of DS, TMZ, or the TMZ/DS combination on autophagy in glioma cells, we transfected cells with GFP-LC3 constructs in addition to various drug treatment and control treatment regimens and examined the accumulation of punctate GFP-LC3 structures using fluorescence microscopy. During autophagy, LC3-II relocalizes to the autophagosomal membranes. Thus, the accumulation of GFP-LC3 puncta provides an effective way to detect autophagosomes. In control cells, GFP-LC3 punctate structures were not detected, but large numbers of GFP-LC3 punctate structures were found in cells treated with DS or TMZ (Figure 5C). […] Strikingly, the combination of DS and TMZ further induced autophagy in up to 50% of U87 cells.
U87 GFP-LC3 cells were analyzed by using a fluorescence microscope, and the percentage of cells displaying GFP-LC3-positive puncta was quantified by counting 5 random fields in 3 independent experiments.

CC(=O)N1CCN(c2nc3c(N4CCOCC4)nc(-c4cnc(N)nc4)nc3n2CC(F)(F)F)C[C@H]1C [DS, 1-{(2R)-4-[2-(2-Aminopyrimidin-5-yl)-6-(morpholin-4-yl)-9-(2,2,2-trifluoroethyl)-9H-purin-8-yl]-2-methylpiperazin-1-yl}ethan-1-one]
pAkt and pS6 staining in U87 tumors [1]: marked reduction
effect on median survival (LN229): no effect on median survival
inhibition of a representative panel of 227 kinases (panel of 227 kinases): poorly inhibited
IC50 ([2]; Glioma cell, GBM cells and GICs, 72 hours exposure, read-out: half maximal inhibitory concentration range of cells considered sensitive): 150 to 265 nM
IC50 ([2]; 9 glioma cell lines and 22 GIC lines, 72 hours, read-out: mean 50% inhibitory concentration, growth of glioma tumor cell lines and GICs): < 250 nM
median survival time (U87 glioma cells; U87 tumor-bearing mice, 6 mg/kg oral, control 30 days, P=0.025): 46 days
toxic effects in mice with intracranial xenograft tumors (U87 glioma cells; treated mice): without causing any obvious toxic effects
cells with induced autophagy (GFP-LC3 puncta) (U87 GFP-LC3 cells): 30%
